According to ChEMBL document CHEMBL1141020, “Anthranilimide-based glycogen phosphorylase inhibitors for the treatment of type 2 diabetes: 1. Identification of 1-amino-1-cycloalkyl carboxylic acid headgroups” (Bioorg Med Chem Lett, 2009):

Columns and labels:
[1] = Metabolic stability in rat liver microsomes assessed as half life; type: ADME, Microsome
[2] = Half life in Beagle dog at 5 mg/kg, po; type: ADME, organism-based, Canis lupus familiaris; design: dose 5 mg/kg, route oral; conditions: in vivo
[3] = Oral bioavailability in Sprague-Dawley rat at 10 mg/kg; type: ADME, organism-based; conditions: in vivo
[4] = Half life in Sprague-Dawley rat at 10 mg/kg, po; type: ADME, organism-based; design: dose 10 mg/kg, route oral; conditions: in vivo
[5] = Volume of distribution at steady state in Sprague-Dawley rat at 10 mg/kg, po or 2.5 mg/kg, iv; type: ADME, organism-based; conditions: in vivo, read-out: Vdss
[6] = Clearance in Beagle dog at 5 mg/kg, po or 1 mg/kg, iv; type: ADME, organism-based, Canis lupus familiaris; conditions: in vivo
[7] = Oral bioavailability in Beagle dog at 5 mg/kg; type: ADME, organism-based, Canis lupus familiaris; conditions: in vivo
[8] = Clearance in Sprague-Dawley rat at 10 mg/kg, po or 2.5 mg/kg, iv; type: ADME, organism-based; conditions: in vivo
[9] = AUC (0 to infinity) in Beagle dog at 1 mg/kg, po; type: ADME, organism-based, Canis lupus familiaris; design: time infinity, dose 1 mg/kg, route oral; conditions: plasma
[10] = Volume of distribution at steady state in Beagle dog at 5 mg/kg, po or 1 mg/kg, iv; type: ADME, organism-based, Canis lupus familiaris; conditions: in vivo, read-out: Vdss
[11] = AUC (0 to infinity) in Sprague-Dawley rat at 1 mg/kg, po; type: ADME, organism-based; design: time infinity, dose 1 mg/kg, route oral; conditions: plasma

`Cc1cc(C)c(NC(=O)Nc2cc3ccccc3cc2C(=O)N[C@H](C(=O)O)C2CCCCC2)c(C)c1` gave a half-life [1] of under 0.25 h.
`Cc1cc(C)c(NC(=O)Nc2cc3ccccc3cc2C(=O)NC2(C(=O)O)CCCCCCC2)c(C)c1` showed a half-life [2] of 4 h, a bioavailability [3] of 28% and a half-life [4] of 5.4 h. The Vd [5] was 0.28 L/kg, the clearance [6] was 13 mL/min/kg and the bioavailability [7] was 45%. The clearance [8] was 1.1 mL/min/kg, the AUC(0-inf) [9] was 620 ng·h/mL and the Vd [10] was 0.5 L/kg. For the same compound, the AUC(0-inf) [11] was 4380 ng·h/mL.
`Cc1cc(C)c(NC(=O)Nc2cc3ccccc3cc2C(=O)N[C@](C)(C(=O)O)C2CCCCC2)c(C)c1` showed a bioavailability [3] of 37%, a half-life [4] of 4.1 h and a Vd [5] of 0.3 L/kg. For the same compound, the clearance [8] was 7.5 mL/min/kg and the AUC(0-inf) [11] was 1720 ng·h/mL.
